According to ChEMBL document CHEMBL1201862, “PubChem BioAssay data set” (2004):
Active and inactive are the calls of the source.

Assays:
[1] = molecular target: Voltage-gated inwardly rectifying potassium channel KCNH2 (Homo sapiens, UniProt Q12809); conditions: Potency;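 note: confirmatory quantitative high-throughput screen measuring inhibition of hERG channel activity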
[2] = molecular target: Induced myeloid leukemia cell differentiation protein Mcl-1 (Homo sapiens, UniProt Q07820); assay type: functional
[3] = molecular target: T1, Long-chain-fatty-acid--AMP ligase FadD28 (Mycobacterium tuberculosis, UniProt P9WQ59); assay: Fluorescence polarization aasay to screen for inhibitors that compete for the binding of FadD28 to a bisubstrate Measured in Biochemical System Using Plate Reader - 2147-01_Inhibitor_Dose_CherryPick_Activity.; assay type: functional, Mycobacterium tuberculosis H37Rv
T1 sequence (P9WQ59 whole entry): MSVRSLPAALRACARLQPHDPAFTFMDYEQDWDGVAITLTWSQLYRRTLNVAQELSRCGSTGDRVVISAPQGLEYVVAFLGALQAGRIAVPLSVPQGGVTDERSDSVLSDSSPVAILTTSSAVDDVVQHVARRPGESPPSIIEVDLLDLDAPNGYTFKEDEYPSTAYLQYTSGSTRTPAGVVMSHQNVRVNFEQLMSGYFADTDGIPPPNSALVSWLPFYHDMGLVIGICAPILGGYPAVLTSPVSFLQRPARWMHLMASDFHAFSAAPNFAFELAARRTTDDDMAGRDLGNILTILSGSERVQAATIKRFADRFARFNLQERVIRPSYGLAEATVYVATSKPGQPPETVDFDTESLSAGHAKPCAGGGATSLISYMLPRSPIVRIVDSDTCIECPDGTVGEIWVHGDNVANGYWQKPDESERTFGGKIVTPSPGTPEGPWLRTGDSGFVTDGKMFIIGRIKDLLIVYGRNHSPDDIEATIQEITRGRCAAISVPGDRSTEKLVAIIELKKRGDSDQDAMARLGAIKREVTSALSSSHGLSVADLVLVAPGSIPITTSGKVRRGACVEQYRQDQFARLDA

[4] = molecular target: T2, Mannose-6-phosphate isomerase (Homo sapiens, UniProt P34949); assay: MPI inhibition at elevated mannose 6-phosphate – biochemical, fluorescence intensity, high mannose 6-phosphate, primary screen (AID 1220)
T2 sequence (P34949 whole entry): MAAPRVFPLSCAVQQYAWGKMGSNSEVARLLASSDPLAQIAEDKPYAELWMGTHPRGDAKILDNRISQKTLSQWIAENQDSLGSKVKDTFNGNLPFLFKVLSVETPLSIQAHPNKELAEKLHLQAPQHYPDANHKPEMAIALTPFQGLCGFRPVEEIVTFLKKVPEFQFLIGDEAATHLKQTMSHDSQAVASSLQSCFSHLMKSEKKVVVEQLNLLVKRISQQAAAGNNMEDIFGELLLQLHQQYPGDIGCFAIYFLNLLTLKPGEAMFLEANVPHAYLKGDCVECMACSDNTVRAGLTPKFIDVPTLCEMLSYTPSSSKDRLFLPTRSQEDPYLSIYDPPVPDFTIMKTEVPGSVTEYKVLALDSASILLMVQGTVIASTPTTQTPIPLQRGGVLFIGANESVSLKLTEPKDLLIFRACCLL

INS1 = assay: INS-1E survival protection against cytokine death – cell-based, luminescence, retest, dose response (AID 449756); assay type: functional; conditions: Rattus norvegicus;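 note: cell death triggered by IL-1 beta plus TNF-alpha plus IFN-gamma mixture; protective hits raise ATP signal compared with cytokine alone wells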
[5] = molecular target: UDP-galactopyranose mutase (Mycobacterium tuberculosis, UniProt P9WIQ1); assay: Inhibitors of Mycobacterium tuberculosis UDP-galactopyranose mutase (UGM) enzyme Measured in Biochemical System Using Plate Reader - 2105-02_Inhibitor_Dose_CherryPick_Activity. [Related pubchem assays (depositor defined):AID504439]
[6] = molecular target: Eukaryotic translation initiation factor 4E (Mus musculus, UniProt P63073); assay: blockers of eIF4G binding by eIF4E – biochemical, TR-FRET, dose response (AID 855); assay type: functional;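 note: potency for disrupting eIF4E binding to eIF4GI seen as loss of FRET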
[7] = molecular target: Glucose-6-phosphate 1-dehydrogenase (Homo sapiens, UniProt P11413); assay: inhibition of Homo sapiens G6PD, dose series – biochemical, fluorescence, selectivity assay for P. falciparum G6PD inhibitor project, dose response (AID 504792); assay type: functional
[8] = viability loss in THP-1 monocytes – THP-1 cells, cytotoxicity control for Vif-APOBEC3G degradation inhibitor project, dose response (AID 1117359); assay type: functional; conditions: THP-1
HEK293 = assay: cells; assay type: functional, cell-based; conditions: Homo sapiens
[9] = molecular target: Nuclear receptor subfamily 0 group B member 1 (Homo sapiens, UniProt P51843); assay: Luminescence-based cell-based high throughput dose response assay for inhibitors of the orphan nuclear receptor subfamily 0, group B, member 1 (DAX1; NR0B1). [Related pubchem assays (depositor defined):AID504766, AID504790]; assay type: functional
[10] = molecular target: T3, Dual specificity protein phosphatase 6 (Rattus norvegicus, UniProt Q64346); assay type: functional
T3 sequence (Q64346 whole entry): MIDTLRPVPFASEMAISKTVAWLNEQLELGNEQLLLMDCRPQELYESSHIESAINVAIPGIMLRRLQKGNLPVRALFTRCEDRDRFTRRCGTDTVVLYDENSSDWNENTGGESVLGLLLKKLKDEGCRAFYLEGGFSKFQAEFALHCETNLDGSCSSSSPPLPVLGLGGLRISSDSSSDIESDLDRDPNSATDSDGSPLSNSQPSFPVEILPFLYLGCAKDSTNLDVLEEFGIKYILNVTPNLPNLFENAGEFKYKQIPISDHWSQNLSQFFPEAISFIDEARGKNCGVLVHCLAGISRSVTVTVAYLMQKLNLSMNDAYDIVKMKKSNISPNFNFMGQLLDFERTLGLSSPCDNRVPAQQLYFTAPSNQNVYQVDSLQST

[11] = molecular target: T4, Tyrosine-protein phosphatase non-receptor type 7 (Homo sapiens, UniProt P35236); assay type: functional
T4 sequence (P35236 whole entry): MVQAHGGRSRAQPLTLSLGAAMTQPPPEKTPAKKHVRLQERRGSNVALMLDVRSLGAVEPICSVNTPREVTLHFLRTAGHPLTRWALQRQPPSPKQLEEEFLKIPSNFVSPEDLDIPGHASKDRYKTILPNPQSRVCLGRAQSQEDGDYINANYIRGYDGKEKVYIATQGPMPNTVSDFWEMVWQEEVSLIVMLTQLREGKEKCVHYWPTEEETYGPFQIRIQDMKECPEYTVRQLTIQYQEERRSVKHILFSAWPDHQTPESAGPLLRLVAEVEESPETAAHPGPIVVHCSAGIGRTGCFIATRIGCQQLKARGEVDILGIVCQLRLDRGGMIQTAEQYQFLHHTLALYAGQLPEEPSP

[12] = molecular target: T3, Dual specificity protein phosphatase 6
[13] = molecular target: Glyceraldehyde-3-phosphate dehydrogenase (Homo sapiens, UniProt P04406)
[14] = PAR1 agonist-induced platelet activation inhibition – cell-based, fluorescence, flow cytometry, human platelets, dose response (AID 2511); assay type: functional
[15] = Luminescence Cell-Based Dose Response Follow up to Identify Inhibitors of Platelet Dense Granule Release. [Related pubchem assays (depositor defined):AID1663, AID1678, AID1889, AID2519]; assay type: functional
[16] = molecular target: Luciferin 4-monooxygenase (Photinus pyralis, UniProt P08659); assay: inhibition of purified Photinus pyralis luciferase – biochemical, luminescence, dose response (AID 1891)
[17] = Luminescence Cell-Based Dose Confirmation HTS to Identify Inhibitors of Platelet Dense Granule Release. [Related pubchem assays: 1663 (Primary HTS), 1678 (Summary of Project)]; assay type: functional
[18] = viability of PTEN-deleted HCT116 cells – cell-based, HCT116 PTEN knockout, dose response (AID 1047); assay type: functional;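 note: HCT116 colon tumor cells with PTEN knocked out; cells exposed to compound for 60 hours before readout; potency for loss of cell viability measured by luminescence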
[19] = molecular target: T5, High affinity choline transporter 1 (Homo sapiens, UniProt Q9GZV3); assay: human choline transporter blockers, potency – cell-based, 5-point CRC, membrane potential dye, dose response (AID 504840); assay type: functional
T5 sequence (Q9GZV3 whole entry): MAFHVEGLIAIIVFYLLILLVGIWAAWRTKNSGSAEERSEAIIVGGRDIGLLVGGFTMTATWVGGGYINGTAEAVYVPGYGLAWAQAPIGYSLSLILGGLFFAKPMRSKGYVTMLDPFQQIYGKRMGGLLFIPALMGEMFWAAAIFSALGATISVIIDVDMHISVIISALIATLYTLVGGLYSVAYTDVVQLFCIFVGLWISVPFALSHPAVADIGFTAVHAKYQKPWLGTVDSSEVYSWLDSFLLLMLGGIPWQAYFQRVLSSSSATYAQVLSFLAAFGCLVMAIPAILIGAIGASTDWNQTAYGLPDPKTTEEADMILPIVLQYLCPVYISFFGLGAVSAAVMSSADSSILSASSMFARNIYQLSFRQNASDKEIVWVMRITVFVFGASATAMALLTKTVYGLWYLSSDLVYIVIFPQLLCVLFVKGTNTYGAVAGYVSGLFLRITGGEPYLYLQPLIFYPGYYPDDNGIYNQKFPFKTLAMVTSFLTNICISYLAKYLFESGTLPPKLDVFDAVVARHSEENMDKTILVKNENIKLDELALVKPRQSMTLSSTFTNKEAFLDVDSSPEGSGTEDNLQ

[20] = molecular target: Delta-type opioid receptor (Homo sapiens, UniProt P41143); assay: Counterscreen for agonists of heterodimerization of the mu 1 (OPRM1) and delta 1 (OPRD1) opioid receptors: Luminescence-based cell-based high throughput dose response assay to identify agonists of OPRD1 homodimerization. [Related pubchem assays (depositor defined):AID504326, AID504355, AID504692, AID504904, AID504905]; assay type: functional
[21] = THP-1 cell cytotoxicity, dose response, cytotoxicity control for non-replicating M. tuberculosis project (AID 489025); assay type: functional
[22] = molecular target: Heat shock protein HSP 90-alpha (Homo sapiens, UniProt P07900); assay type: functional, organism-based
[23] = Vero E6 cell cytotoxicity, dose response, cytotoxicity control for non-replicating M. tuberculosis project, secondary assay (AID 492998); assay type: functional, VeroE6; conditions: Vero C1008
Mu-type opioid receptor = Mu-type opioid receptor (Homo sapiens, UniProt P35372); assay: Counterscreen for agonists of heterodimerization of the mu 1 (OPRM1) and delta 1 (OPRD1) opioid receptors: Luminescence-based cell-based high throughput dose response assay to identify agonists of OPRM1 homodimerization.; assay type: functional;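 note: U2OS cells expressing OPRM1 and beta-arrestin as split beta-galactosidase partners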
cells = assay type: functional
[24] = viability of HCT116 lacking mutant beta-catenin – cell-based, human colon tumor, dose response (AID 1045); assay type: functional;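 note: HCT116 colon tumor cells with beta catenin knocked out; cells exposed to compound for 60 hours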
[25] = molecular target: 5-hydroxytryptamine receptor 5A (Homo sapiens, UniProt P47898); assay: Counterscreen for agonists of OPRM1-OPRD1 heterodimerization: luminescence-based cell-based high throughput dose response assay to identify agonists of 5-hydroxytryptamine (serotonin) 5A receptor (HTR5A). [Related pubchem assays (depositor defined):AID504326, AID504355, AID504692, AID504904, AID504905]; assay type: functional
[26] = molecular target: Sphingosine 1-phosphate receptor 2 (Homo sapiens, UniProt O95136); assay: Dose Response Cell Based Assay for Antagonists of the S1P2 Receptor. [Related pubchem assays: 856, 736 ]; assay type: functional
Sequence of Sphingosine 1-phosphate receptor 2 (O95136 whole entry): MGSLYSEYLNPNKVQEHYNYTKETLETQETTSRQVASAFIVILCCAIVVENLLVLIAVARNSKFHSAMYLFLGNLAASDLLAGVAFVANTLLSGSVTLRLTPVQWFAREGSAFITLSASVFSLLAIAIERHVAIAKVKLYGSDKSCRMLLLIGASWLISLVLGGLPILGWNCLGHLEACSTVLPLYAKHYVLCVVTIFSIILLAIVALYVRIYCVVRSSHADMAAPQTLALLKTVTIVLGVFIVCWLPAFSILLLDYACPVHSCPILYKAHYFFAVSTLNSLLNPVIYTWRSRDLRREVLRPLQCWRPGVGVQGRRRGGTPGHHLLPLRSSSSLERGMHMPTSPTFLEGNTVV

Sequence of Nuclear receptor subfamily 0 group B member 1 (P51843 whole entry): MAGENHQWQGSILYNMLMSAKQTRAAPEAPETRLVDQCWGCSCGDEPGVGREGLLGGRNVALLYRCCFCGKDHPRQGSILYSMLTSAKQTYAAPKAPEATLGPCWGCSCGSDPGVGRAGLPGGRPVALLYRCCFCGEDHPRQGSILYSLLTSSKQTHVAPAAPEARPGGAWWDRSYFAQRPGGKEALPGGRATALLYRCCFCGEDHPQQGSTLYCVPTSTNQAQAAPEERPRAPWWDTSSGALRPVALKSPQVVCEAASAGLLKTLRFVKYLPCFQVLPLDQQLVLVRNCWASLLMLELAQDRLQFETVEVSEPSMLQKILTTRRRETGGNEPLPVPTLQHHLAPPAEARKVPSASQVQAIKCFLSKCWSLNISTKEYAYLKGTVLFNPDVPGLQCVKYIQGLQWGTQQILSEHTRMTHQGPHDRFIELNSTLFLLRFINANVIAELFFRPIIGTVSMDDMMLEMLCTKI
Sequence of Glucose-6-phosphate 1-dehydrogenase (P11413 whole entry): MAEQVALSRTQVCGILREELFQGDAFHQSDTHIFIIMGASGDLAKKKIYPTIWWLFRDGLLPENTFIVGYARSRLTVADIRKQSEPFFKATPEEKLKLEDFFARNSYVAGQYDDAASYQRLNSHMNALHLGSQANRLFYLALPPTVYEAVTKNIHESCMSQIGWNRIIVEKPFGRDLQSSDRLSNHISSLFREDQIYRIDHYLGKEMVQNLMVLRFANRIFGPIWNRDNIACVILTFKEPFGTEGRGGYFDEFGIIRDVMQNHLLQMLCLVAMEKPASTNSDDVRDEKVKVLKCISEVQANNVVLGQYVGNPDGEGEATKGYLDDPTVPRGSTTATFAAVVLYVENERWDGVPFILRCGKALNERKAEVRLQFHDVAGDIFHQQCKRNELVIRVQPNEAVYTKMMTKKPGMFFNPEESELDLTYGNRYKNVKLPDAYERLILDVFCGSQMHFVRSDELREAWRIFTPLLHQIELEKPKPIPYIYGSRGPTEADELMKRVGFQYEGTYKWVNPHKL
Sequence of Luciferin 4-monooxygenase (P08659 whole entry): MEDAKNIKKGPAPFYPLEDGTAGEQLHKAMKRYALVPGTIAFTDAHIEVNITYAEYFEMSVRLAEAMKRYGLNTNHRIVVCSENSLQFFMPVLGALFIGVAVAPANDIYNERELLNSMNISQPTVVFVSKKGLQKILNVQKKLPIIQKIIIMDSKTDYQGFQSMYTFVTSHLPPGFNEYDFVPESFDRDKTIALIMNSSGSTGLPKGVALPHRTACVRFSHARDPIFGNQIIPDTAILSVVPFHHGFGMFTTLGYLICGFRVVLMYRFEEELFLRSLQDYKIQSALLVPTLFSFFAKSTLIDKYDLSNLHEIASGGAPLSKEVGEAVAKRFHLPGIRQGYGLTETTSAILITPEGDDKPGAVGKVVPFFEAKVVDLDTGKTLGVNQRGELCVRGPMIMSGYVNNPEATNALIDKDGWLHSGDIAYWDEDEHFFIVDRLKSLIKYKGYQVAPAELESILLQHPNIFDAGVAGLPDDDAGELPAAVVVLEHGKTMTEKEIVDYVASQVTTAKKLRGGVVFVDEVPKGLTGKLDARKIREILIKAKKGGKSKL
Sequence of Induced myeloid leukemia cell differentiation protein Mcl-1 (Q07820 whole entry): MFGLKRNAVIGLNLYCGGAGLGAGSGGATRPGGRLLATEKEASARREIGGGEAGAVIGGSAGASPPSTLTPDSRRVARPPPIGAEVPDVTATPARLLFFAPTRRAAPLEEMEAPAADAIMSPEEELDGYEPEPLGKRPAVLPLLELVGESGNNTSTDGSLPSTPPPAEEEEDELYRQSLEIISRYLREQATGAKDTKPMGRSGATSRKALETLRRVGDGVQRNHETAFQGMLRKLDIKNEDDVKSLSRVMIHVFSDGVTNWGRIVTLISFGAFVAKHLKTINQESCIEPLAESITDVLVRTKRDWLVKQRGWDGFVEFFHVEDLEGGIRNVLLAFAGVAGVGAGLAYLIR
Sequence of Mu-type opioid receptor (P35372 whole entry): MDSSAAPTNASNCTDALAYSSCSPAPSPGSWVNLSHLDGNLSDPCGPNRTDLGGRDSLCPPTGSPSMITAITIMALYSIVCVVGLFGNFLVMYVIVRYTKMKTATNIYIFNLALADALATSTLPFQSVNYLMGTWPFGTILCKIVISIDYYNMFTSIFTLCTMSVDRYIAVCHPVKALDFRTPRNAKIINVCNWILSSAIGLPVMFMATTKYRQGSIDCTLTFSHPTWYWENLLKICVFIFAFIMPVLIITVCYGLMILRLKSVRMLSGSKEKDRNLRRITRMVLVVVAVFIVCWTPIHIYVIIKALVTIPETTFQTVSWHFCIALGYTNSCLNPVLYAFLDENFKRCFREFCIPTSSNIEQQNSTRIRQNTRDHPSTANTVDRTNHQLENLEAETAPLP
Sequence of UDP-galactopyranose mutase (P9WIQ1 whole entry): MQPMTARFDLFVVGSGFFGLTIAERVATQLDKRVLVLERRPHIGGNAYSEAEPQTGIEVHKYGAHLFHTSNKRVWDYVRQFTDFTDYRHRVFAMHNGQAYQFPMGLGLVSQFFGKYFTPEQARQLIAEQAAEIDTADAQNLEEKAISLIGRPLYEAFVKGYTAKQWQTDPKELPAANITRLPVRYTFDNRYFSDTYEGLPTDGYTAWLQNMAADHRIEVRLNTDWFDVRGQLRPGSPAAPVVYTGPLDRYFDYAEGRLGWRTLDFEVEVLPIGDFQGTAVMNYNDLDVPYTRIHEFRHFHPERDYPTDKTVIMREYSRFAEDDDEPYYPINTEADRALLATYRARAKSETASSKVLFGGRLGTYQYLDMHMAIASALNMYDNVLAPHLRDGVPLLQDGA
Sequence of Eukaryotic translation initiation factor 4E (P63073 whole entry): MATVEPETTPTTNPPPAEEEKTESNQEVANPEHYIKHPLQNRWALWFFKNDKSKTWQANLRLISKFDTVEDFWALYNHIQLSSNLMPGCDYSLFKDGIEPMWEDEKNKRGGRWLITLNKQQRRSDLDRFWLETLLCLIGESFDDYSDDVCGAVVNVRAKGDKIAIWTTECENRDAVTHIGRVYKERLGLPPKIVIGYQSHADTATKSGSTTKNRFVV
Sequence of Delta-type opioid receptor (P41143 whole entry): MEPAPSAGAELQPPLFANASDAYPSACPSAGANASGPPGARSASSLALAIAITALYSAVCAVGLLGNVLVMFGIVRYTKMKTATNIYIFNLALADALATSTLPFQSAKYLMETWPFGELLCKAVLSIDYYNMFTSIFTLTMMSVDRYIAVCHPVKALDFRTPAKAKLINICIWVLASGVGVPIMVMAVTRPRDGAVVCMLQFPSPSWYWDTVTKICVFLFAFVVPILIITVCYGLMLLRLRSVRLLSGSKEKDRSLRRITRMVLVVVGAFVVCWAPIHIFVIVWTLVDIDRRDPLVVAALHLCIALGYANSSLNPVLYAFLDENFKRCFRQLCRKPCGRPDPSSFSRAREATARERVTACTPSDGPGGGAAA
Sequence of 5-hydroxytryptamine receptor 5A (P47898 whole entry): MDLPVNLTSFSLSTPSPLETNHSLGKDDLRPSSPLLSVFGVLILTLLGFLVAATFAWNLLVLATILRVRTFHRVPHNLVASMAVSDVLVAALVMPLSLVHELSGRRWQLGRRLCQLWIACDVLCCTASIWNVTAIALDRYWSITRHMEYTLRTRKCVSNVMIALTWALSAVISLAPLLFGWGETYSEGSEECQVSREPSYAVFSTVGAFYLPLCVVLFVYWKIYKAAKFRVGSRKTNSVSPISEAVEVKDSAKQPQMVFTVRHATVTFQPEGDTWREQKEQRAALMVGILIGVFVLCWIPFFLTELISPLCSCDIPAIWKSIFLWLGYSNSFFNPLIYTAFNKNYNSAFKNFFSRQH
Sequence of Glyceraldehyde-3-phosphate dehydrogenase (P04406 whole entry): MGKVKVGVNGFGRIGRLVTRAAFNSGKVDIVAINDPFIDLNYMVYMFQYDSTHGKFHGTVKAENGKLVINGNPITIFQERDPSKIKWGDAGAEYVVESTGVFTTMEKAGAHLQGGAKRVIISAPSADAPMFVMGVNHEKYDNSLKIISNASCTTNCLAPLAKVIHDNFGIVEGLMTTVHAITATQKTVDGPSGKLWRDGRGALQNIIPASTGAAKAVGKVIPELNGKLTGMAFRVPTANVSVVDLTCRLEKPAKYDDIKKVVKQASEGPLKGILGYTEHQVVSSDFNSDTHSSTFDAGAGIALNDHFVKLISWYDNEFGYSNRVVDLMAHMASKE

Compound: CCN(CC)C(=O)N[C@@H]1C[C@@H]2c3cccc4[nH]cc(c34)C[C@H]2N(C)C1
- AC50 [1]: 25.1 µM (inconclusive)

Compound: COc1cc(/C=C2\CC/C(=C\c3cc(OC)c(O)c(OC)c3)C2=O)cc(OC)c1O
- IC50 [2]: 5.75 µM (active)
- AC50 [3]: 86.6 µM (active)
- IC50 [4]: 24.7 µM (active)
- AC50 (INS1): 4.41 µM (active)
- AC50 [5]: 8.22 µM (active)
- IC50 [6]: > 64 µM (inactive)
- IC50 [7]: > 80 µM (inactive)
- CC50 [8]: 3.3 µM (active)

Compound: COc1ccc(-c2csc(Nc3cccc(C)n3)n2)cc1
- IC50 (HEK293): > 67.5 µM (inactive)
- IC50 [9]: > 67.5 µM (inactive)

Compound: Cc1ccccc1Cn1c(=O)n(-c2ccccc2)c(=O)n([C@H](C(=O)O)C(C)C)c1=O
- IC50 [10]: > 100 µM (inactive)
- IC50 [11]: > 100 µM (not active)
- IC50 [12]: > 100 µM (inactive)
- IC50 [13]: > 100 µM (not active)

Compound: CCCCC(=O)Nc1cccc(NC(=O)c2ccccc2Br)c1
- EC50 [14]: < 3 µM (active)
- EC50 [15]: 500 µM (inactive)
- EC50 [16]: > 112 µM (not active)
- EC50 [17]: 6.9 µM (active)

Compound: CC1=C/C(=N\OS(=O)(=O)c2ccccc2)C(C)=CC1=O
- EC50 [18]: 14.5 µM (active)
- IC50 [19]: 12.3 µM (active)
- EC50 [20]: > 92.5 µM (inactive)
- IC50 [4]: 3.73 µM (active)
- CC50 [21]: 12 µM (active)
- AC50 (INS1): 1.17 µM (active)
- AC50 [22]: 0.554 µM (active)
- CC50 [23]: 15.6 µM (active)
- EC50 (Mu-type opioid receptor): > 92.5 µM (inactive)
- IC50 (cells): 3.09 µM (active)
- EC50 [24]: 16.4 µM (active)
- EC50 [25]: > 92.5 µM (inactive)
- IC50 [26]: 3.71 µM (active)
